The subject of the assay is Leukemia L1210 cells. The assay is described as follows: Chemotherapeutic effect of nitrosourea derivatives on leukemia L1210 in mice. In kind it is in vivo, mice (BDF1/BDF). The source says: Chemotherapeutic effect of a variety of the nitrosourea derivatives of the formula I according to this invention on leukemia L1210 in mice were investigated by the following method and materials.
A--BDF1 mice (about 6 week-aged; body weight: 22±1 g); each experimental group was composed of 2 male mice.
B--BDF1 mice (about 7 week-aged; body weight: 21±2 g); each experimental group was composed of 3 male mice.
C--BDF mice (about 7 week-aged; body weight: 22±2 g); each experimental group was composed of 2 male mice.
D--BDF mice (about 6 week-aged; body weight: 21±2 g); each experimental group was composed of 3 male mice.
E--BDF1 mice (about six week-aged; body weight 20±1 g); each experimental group was composed of 3 female mice.
F--BDF1 mice (about six week-aged; body weight 21±1 g); each experimental group was composed of 3 male mice.
A--Leukemia L1210 cells (2.1×10^6 cells/ 0.05 ml/mouse) were intraperitoneally inoculated.
B--Leukemia L1210 cells (1.9×10^6 cells/0.05 ml/mouse) were intraperitoneally inoculated.
C--Leukemia L1210 cells (1.2×10^6 cells/0.05 ml/mouse) were intraperitoneally inoculated.
A--The test compound was dissolved in a physiological saline solution and administered intraperitoneally at a volume of 0.1 ml/mouse. The administration was made at once/day, from 24 hours after i.p. inoculation of L1210 cells, for 3 days. The effect of test compound was assessed by mean survival days of mice, percent increase in life-span, anatomical findings involving the volume of ascites.
B--The same as that used in A except that the drug administration was continued for 5 days.
C--The same as that used in A except that the test compound was suspended in 0.5% CMC solution and that the drug administration was continued for 5 days.
D--The same as that used in A except that the test compound was dissolved in distilled water for injection purposes.
The percentage increase in life-span (ILS) was calculated as follows:
Percentage increase in life-span (ILS)=T-C/C×100
T: The mean survival days of the treated animals.
C: The mean survival days of the untreated control.

Setting [1] is: 0.5 mg/kg i.p. once/day for 3 days (procedure A, saline).
The mark [2] stands for this setting: 1 mg/kg i.p. once/day for 3 days (procedure A, saline).
Setting [3] is: 2 mg/kg i.p. once/day for 3 days (procedure A, saline).
The mark [4] stands for this setting: 4 mg/kg i.p. once/day for 3 days (procedure A, saline).
The mark [5] stands for this setting: 8 mg/kg i.p. once/day for 3 days (procedure A, saline).
[6] abbreviates: Mus musculus, L1210, ip, 72 h, 1 mg/kg i.p. once/day for 3 days (procedure A, saline), read-out: Percentage increase in life-span (ILS).
Setting [7] is: Mus musculus, L1210, ip, 72 h, 2 mg/kg i.p. once/day for 3 days (procedure A, saline), read-out: Percentage increase in life-span (ILS).
Where [8] appears, read: Mus musculus, L1210, ip, 72 h, 4 mg/kg i.p. once/day for 3 days (procedure A, saline), read-out: Percentage increase in life-span (ILS).
Setting [9] is: Mus musculus, L1210, ip, 72 h, 8 mg/kg i.p. once/day for 3 days (procedure A, saline), read-out: Percentage increase in life-span (ILS).
[10] abbreviates: 16 mg/kg i.p. once/day for 3 days (procedure A, saline).
[11] abbreviates: Mus musculus, L1210, ip, 72 h, 16 mg/kg i.p. once/day for 3 days (procedure A, saline), read-out: Percentage increase in life-span (ILS).
Where [12] appears, read: 6 mg/kg i.p. once/day for 3 days (procedure A, saline).
Setting [13] is: 10 mg/kg i.p. once/day for 3 days (procedure A, saline).
Where [14] appears, read: 20 mg/kg i.p. once/day for 3 days (procedure A, saline).
Where [15] appears, read: 30 mg/kg i.p. once/day for 3 days (procedure A, saline).
[16] abbreviates: Mus musculus, L1210, ip, 72 h, 10 mg/kg i.p. once/day for 3 days (procedure A, saline), read-out: Percentage increase in life-span (ILS).
Where [17] appears, read: 200 mg/kg i.p. once/day for 5 days (procedure B, saline).
[18] abbreviates: 300 mg/kg i.p. once/day for 5 days (procedure B, saline).
Where [19] appears, read: Mus musculus, L1210, ip, 120 h, read-out: Percentage increase in life-span (ILS).
[20] abbreviates: 2.5 mg/kg i.p. once/day for 3 days (procedure A, saline).
Setting [21] is: 5 mg/kg i.p. once/day for 3 days (procedure A, saline).

A value given as a limit tells only on which side of the number the result lay.

Consider eight compounds from patent publication US4180655A, “Nitrosourea derivatives” (Suami; Tetsuo, priority 1974, dated 1979).

For the compound `O=NN(CCCl)C(=O)N[C@@H]1O[C@H](CO)[C@@H](O)[C@H](O)[C@@H]1O` [Compound 2, 1-(2-chloroethyl)-3-(β-D-mannopyranosyl)-1-nitrosourea], the “Survival days, Treated (mean)” value is, setting by setting: under setting [1], 13.0 days; under setting [2], 13.7 days; under setting [3], 14.7 days; under setting [4], 15.0 days; under setting [5], 18.3 days. Besides, the “Volume of ascites, Treated” value is recorded as 3.0 under setting [1]; 2.3 under setting [2]; 1.2 under setting [3]; 1.2 under setting [4]; 0 under setting [5]. For the setting “Mus musculus, L1210, ip, 72 h, 0.5 mg/kg i.p. once/day for 3 days (procedure A, saline), read-out: Percentage increase in life-span (ILS)”, the ILS at 0.5 mg/kg amounted to 44.4%. In addition, the ILS at 1 mg/kg under setting [6] is 51.9%. In addition, the ILS at 2 mg/kg under setting [7] stood at 63%. Moreover, the ILS at 4 mg/kg under setting [8] turned out to be 66.7%. Further, under setting [9], the ILS at 8 mg/kg was 103%.

As to `O=NN(CCCl)C(=O)N[C@@H]1OC[C@@H](O)[C@H](O)[C@H]1O` [Compound 3, 1-(2-chloroethyl)-1-nitroso-3-(β-D-xylopyranosyl)urea], the “Survival days, Treated (mean)” value is recorded as 17.0 days under setting [2]; above 24.0 days under setting [3]; above 60.0 days under setting [4]; above 60.0 days under setting [5]; 9.0 days under setting [10]. Also, the “Volume of ascites, Treated” value is 0 under setting [2]; 0 under setting [3]; 0 under setting [4]; 0 under setting [5]; 0 under setting [10]. The ILS at 1 mg/kg under setting [6] came out at 54.5%. The ILS at 2 mg/kg under setting [7] was above 118%. Further, the ILS at 4 mg/kg under setting [8] is above 446%. For the same compound, under setting [9], the ILS at 8 mg/kg is above 446%. Moreover, the ILS at 16 mg/kg under setting [11] is -18.2%.

`O=NN(CCCl)C(=O)N[C@H]1[C@H](O)CCC[C@@H]1O` [Compound 4, 1-(2-chloroethyl)-3-(1,3/2N-dihydroxycyclohexyl)-1-nitrosourea]: the “Survival days, Treated (mean)” value is, setting by setting: under setting [3], 22.0 days; under setting [4], above 60.0 days; under setting [5], above 59.3 days; under setting [10], 13.0 days. For the same compound, the “Volume of ascites, Treated” value reads like this: under setting [3], 0.8; under setting [4], 0; under setting [5], 0; under setting [10], 0. Besides, under setting [7], the ILS at 2 mg/kg was 114%. The ILS at 4 mg/kg under setting [8] is above 482%. For the same compound, the ILS at 8 mg/kg under setting [9] was above 476%. Besides, the ILS at 16 mg/kg under setting [11] worked out at 26.2%.

Turning to `O=NN(CCCl)C(=O)N[C@H]1[C@H](O)[C@@H](O)[C@H](O)[C@@H](O)[C@@H]1O` [Compound 5, 1-(2-chloroethyl)-1-nitroso-3-(1N,3,5/2,4,6-pentahydroxycyclohexyl)urea], the “Survival days, Treated (mean)” value by setting is: under setting [2], 12.0 days; under setting [3], 12.5 days; under setting [4], 13.0 days; under setting [12], 14.0 days; under setting [5], 16.0 days; under setting [13], 15.5 days. Besides, the “Survival days, Treated (mean)” value reads like this: under setting [14], above 61.1 days; under setting [15], 11.6 days. The “Volume of ascites, Treated” value is, setting by setting: under setting [2], 4.5; under setting [3], 4.0; under setting [4], 2.8; under setting [12], 2.0; under setting [5], 2.5; under setting [13], 0. Moreover, the “Volume of ascites, Treated” value by setting is: under setting [14], 0; under setting [15], 0. The ILS at 1 mg/kg under setting [6] was found to be 23.7%. Under setting [7], the ILS at 2 mg/kg was determined as 28.9%. Further, under setting [8], the ILS at 4 mg/kg was 34%. Besides, the ILS at 6 mg/kg (Mus musculus, L1210, ip, 72 h, 6 mg/kg i.p. once/day for 3 days (procedure A, saline), read-out: Percentage increase in life-span (ILS)) was determined as 44.3%. In addition, under setting [9], the ILS at 8 mg/kg came to 64.9%. The ILS at 10 mg/kg under setting [16] is 59.8%. Besides, the ILS at 20 mg/kg (Mus musculus, L1210, ip, 72 h, 20 mg/kg i.p. once/day for 3 days (procedure A, saline), read-out: Percentage increase in life-span (ILS)) is above 530%. Besides, for the setting “Mus musculus, L1210, ip, 72 h, 30 mg/kg i.p. once/day for 3 days (procedure A, saline), read-out: Percentage increase in life-span (ILS)”, the ILS at 30 mg/kg came to 19.6%.

Turning to `CO[C@@H]1O[C@H](C)[C@@H](O)[C@H](O)[C@H]1NC(=O)N(C)N=O` [Compound 6, Methyl 2,6-dideoxy-2-(N'-methyl-N-nitrosoureido)-βD-glucopyranoside], under setting [17], the “Survival days, Treated (mean)” value is given as 15.1 days and the “Volume of ascites, Treated” value is 2.0. For the same compound, under setting [18], the “Survival days, Treated (mean)” value was 13.0 days and the “Volume of ascites, Treated” value was 0.3. In addition, under setting [19], the ILS at 200 mg/kg was found to be 77.6% and the ILS at 300 mg/kg was 52.9%.

Take `O=NN(CCCl)C(=O)N[C@@H]1O[C@H](CO)[C@H](O)[C@H](O)[C@H]1O` [Compound 7, 1-(2-chloroethyl)-3-(β-D-galactopyranosyl)-1-nitrosourea]: the “Survival days, Treated (mean)” value under setting [2] stood at 18.5 days; the “Survival days, Treated (mean)” value under setting [3] is given as 14.7 days; the “Survival days, Treated (mean)” value under setting [4] is given as above 47.0 days; the “Survival days, Treated (mean)” value under setting [5] is reported as above 47.0 days; the “Survival days, Treated (mean)” value under setting [13] worked out at 18.7 days. In addition, the “Volume of ascites, Treated” value runs as follows: under setting [2], 4.6; under setting [3], 0.8; under setting [4], 0; under setting [5], 0; under setting [13], 0. Further, the ILS at 1 mg/kg under setting [6] came to 98.9%. Also, under setting [7], the ILS at 2 mg/kg turned out to be 58.1%. Besides, the ILS at 4 mg/kg under setting [8] was above 405%. Moreover, the ILS at 8 mg/kg under setting [9] is above 405%. Under setting [16], the ILS at 10 mg/kg turned out to be 101%.

With `O=NN(CCCl)C(=O)N[C@@H]1O[C@H](CO)[C@@H](O[C@@H]2O[C@H](CO)[C@H](O)[C@H](O)[C@H]2O)[C@H](O)[C@H]1O` [Compound 8, 1-(2-chloroethyl)-3-(β-D-lactosyl)-1-nitrosourea], the “Survival days, Treated (mean)” value is on record as 12.5 days under setting [20], 14.3 days under setting [21] and above 47.0 days under setting [13]. The “Volume of ascites, Treated” value is, setting by setting: under setting [20], 3.3; under setting [21], 1.0; under setting [13], 0. For the same compound, where the note is “Mus musculus, L1210, ip, 72 h, 2.5 mg/kg i.p. once/day for 3 days (procedure A, saline), read-out: Percentage increase in life-span (ILS)”, the ILS at 2.5 mg/kg came out at 28.9%. Further, the ILS at 5 mg/kg (Mus musculus, L1210, ip, 72 h, 5 mg/kg i.p. once/day for 3 days (procedure A, saline), read-out: Percentage increase in life-span (ILS)) is 47.4%. Under setting [16], the ILS at 10 mg/kg is above 384%.

On to `O=NN(CCCl)C(=O)N[C@@H](CO)[C@@H](O)[C@H](O)[C@H](O)CO` [Compound 9, N-carbamoyl-N'-(2-chloroethyl)-N'-nitroso-D-glucosaminol], for which, under setting [5], the “Survival days, Treated (mean)” value stood at 18.0 days and the “Volume of ascites, Treated” value was 0. Under setting [10], the “Survival days, Treated (mean)” value was above 53.7 days and the “Volume of ascites, Treated” value came out at 0. Besides, the ILS at 8 mg/kg under setting [9] was 68.2%. In addition, under setting [11], the ILS at 16 mg/kg is above 402%.
